pIC50: −log10 of the molar value. One block for each compound: values may come before it.
Tests used:
[1] = tested on: HT-29; experiment: cells; details: Homo sapiens, HT-29, 72 h
Description: Anticancer activity against human HT-29 cells assessed as inhibition of cell growth measured after 72 hrs by SRB assay

[2] = tested on: A549; experiment: cells; details: Homo sapiens, A549, 72 h
Description: Anticancer activity against human A549 cells assessed as inhibition of cell growth measured after 72 hrs by SRB assay

[3] = tested on: MDA-MB-231; experiment: cells; details: Homo sapiens, MDA-MB-231, 72 h
Description: Anticancer activity against human MDA-MB-231 cells assessed as inhibition of cell growth measured after 72 hrs by SRB assay

[4] = tested on: HCT-116; experiment: Anticancer activity against human HCT-116 cells assessed as inhibition of cell growth by MTS assay; assay type: functional, cell-based
[5] = tested on: P388; experiment: Anticancer activity against mouse P388 cells assessed as cell growth inhibition; assay type: functional, cell-based
[6] = tested on: HT-29; experiment: Anticancer activity against human HT-29 cells assessed as cell growth inhibition; assay type: functional, cell-based
[7] = tested on: SK-MEL-28; experiment: Anticancer activity against human MEL-28 cells assessed as cell growth inhibition; assay type: functional, cell-based
[8] = tested on: A549; experiment: Anticancer activity against human A549 cells assessed as cell growth inhibition; assay type: functional, cell-based
[9] = tested on: Daoy; experiment: Anticancer activity against human Daoy cells assessed as inhibition of cell growth; assay type: functional, cell-based
[10] = tested on: HeLa; experiment: Anticancer activity against human HeLa cells assessed as inhibition of cell growth; assay type: functional, cell-based
[11] = tested on: HT-29; experiment: Anticancer activity against human HT-29 cells assessed as inhibition of cell growth; assay type: functional, cell-based
[12] = tested on: P388; experiment: Anticancer activity against mouse P388 cells assessed as inhibition of cell growth; assay type: functional, cell-based
[13] = tested on: A549; experiment: Anticancer activity against human A549 cells assessed as inhibition of cell growth; assay type: functional, cell-based
[14] = tested on: PC-3; experiment: Anticancer activity against human PC-3 cells assessed as inhibition of cell growth; assay type: functional, cell-based
[15] = tested on: MCF7; experiment: Anticancer activity against human MCF7 cells assessed as inhibition of cell growth; assay type: functional, cell-based
[16] = organism: Homo sapiens; experiment: Inhibition of actin (unknown origin) polymerization at 1 uM incubated for 20 mins in presence of ATP by ELISA analysis relative to control
[17] = tested on: MCF7; experiment: Anticancer activity against human MCF7 cells assessed as inhibition of cell growth incubated for 72 hrs by MTT assay; assay type: functional, cell-based; details: MCF7, 72 h
[18] = tested on: MDA-MB-231; experiment: Anticancer activity against human MDA-MB-231 cells assessed as inhibition of cell growth incubated for 72 hrs by MTT assay; assay type: functional, cell-based; details: MDA-MB-231, 72 h
[19] = Inhibition of actin (unknown origin) polymerization at 100 nM incubated for 20 mins in presence of ATP by ELISA analysis relative to control; details: Homo sapiens
[20] = tested on: MCF7; experiment: Potency index, ratio of latrunculin IC50 to test compound IC50 for cytotoxicity against human MCF7 cells; assay type: functional
[21] = Inhibition of actin (unknown origin) polymerization incubated for 20 mins in presence of ATP by ELISA analysis; design: species or system Homo sapiens
[22] = tested on: HepG2; experiment: Anticancer activity against human HepG2 cells assessed as inhibition of cell growth incubated for 48 hrs by crystal violet staining based microplate reader analysis; assay type: functional; details: HepG2, 48 h
[23] = tested on: MM1.S; experiment: Anticancer activity against human MM1.S cells assessed as cell growth inhibition by MTT assay; assay type: functional, cell-based
[24] = tested on: OVCAR-3; experiment: Anticancer activity against human OVCAR-3 cells assessed as cell growth inhibition by crystal violet staining based assay; assay type: functional
[25] = tested on: HT-29; experiment: Anticancer activity against human HT-29 cells assessed as cell growth inhibition by crystal violet staining based assay; assay type: functional
[26] = tested on: KB 3-1; experiment: Anticancer activity against human KB 3-1 cells assessed as inhibition in cell growth; assay type: functional, cell-based
[27] = tested on: A549; experiment: Anticancer activity against human A549 cells assessed as inhibition of cell growth incubated for 24 hrs by MTT assay; assay type: functional, cell-based; details: A549, 24 h
[28] = tested on: MCF7; experiment: Anticancer activity against human MCF7 cells assessed as inhibition of cell growth incubated for 24 hrs by MTT assay; assay type: functional, cell-based; details: MCF7, 24 h
[29] = tested on: HeLa; experiment: Anticancer activity against human HeLa cells assessed as inhibition of cell growth incubated for 24 hrs by MTT assay; assay type: functional, cell-based
[30] = tested on: HCT-116; experiment: Antiproliferative activity against human HCT-116 cells assessed as cell viability measured after 24 hrs by MTT assay; assay type: functional, cell-based; details: HCT-116, 24 h
[31] = tested on: HeLa; experiment: Antiproliferative activity against human HeLa cells assessed as cell viability measured after 24 hrs by MTT assay; assay type: functional, cell-based
[32] = tested on: MDA-MB-231; experiment: Anticancer activity against human MDA-MB-231 cells assessed as cell viability measured after 24 hrs by MTT assay; assay type: functional, cell-based; details: MDA-MB-231, 24 h

pIC50 [1]: 4.52 | pIC50 [2]: 4.54 | pIC50 [3]: 4.54
Structure (SMILES): CC[C@H](C)[C@@H]1NC(=O)[C@@H](C(O)C(C)C)NC(=O)[C@H](Cc2ccc(O)cc2)NC(=O)[C@H]([C@H](C)O)NC(=O)[C@@H](C)NC(=O)[C@H](CC(C)C)NC(=O)[C@H](Cc2ccc(O)cc2)NC(=O)[C@H](Cc2ccccc2)NC1=O (some centres not stated)

Structure (SMILES): CO[C@H]1C[C@H](CC[C@H](C)[C@H](O)[C@H](C)[C@H]2OC(=O)/C=C/C(C)=C/C[C@@H](O)C[C@H]3C=CC[C@@H](C[C@H](OC)[C@@H](C)[C@@H](O)C[C@@H](O)[C@H](C)[C@@H]([C@@H](C)[C@@H](O)[C@@H](C)CC[C@H]4C[C@H](OC)C[C@H](C)O4)OC(=O)/C(C)=C/C[C@H](O)C[C@@H]4C=CC[C@@H](C[C@H](OC)[C@@H](C)[C@@H](O)C[C@@H](O)[C@@H]2C)O4)O3)O[C@@H](C)C1
pIC50 [4]: 6.44

pIC50 [5]: 6.62 | pIC50 [6]: 6.92 | pIC50 [7]: 6.62 | pIC50 [8]: 6.92
Structure (SMILES): C=C1CCC[C@@H]2[C@@](C)(CC[C@@]3(C)CCn4cnc5ncnc(c54)N3O)[C@H](C)CC[C@]12C

pIC50 [10]: 6.86
Structure (SMILES): O=C(O)CCCC#C/C=C/CC/C=C/C#C/C=C/Br
pIC50 [9]: 7.12

Structure (SMILES): C=C(CCC1=C(C)CCCC1(C)C)C(O)CC[C@@]1(C)CC[C@H]([C@@H](C)C(=O)O)OO1 (some centres not stated)
pIC50 [11]: < 8.62 | pIC50 [12]: < 8.62 | pIC50 [13]: < 8.62

Structure (SMILES): C=C1CCC[C@@H]2[C@@](C)(CC[C@@]3(C)CC[C@@H]([C@H](C)C(=O)O)OO3)[C@H](C)CC[C@@]12C
pIC50 [14]: 4.36 | pIC50 [15]: 4.44 | pIC50 [8]: 4.62

Structure (SMILES): C/C1=C/C(=O)O[C@@H]2C[C@@H](CC[C@H](C)/C=C\C=C\CC1)O[C@@](OCCc1ccccc1)([C@@H]1CSC(=O)N1)C2
inhibition [16]: 94% | pIC50 [17]: 7.00 | pIC50 [18]: 5.57 | inhibition [19]: 31% | Ratio IC50 [20]: 4.8 | pIC50 [21]: 6.74

Structure (SMILES): CC1=C(CCC(C)(O)/C=C/C[C@@]2(C)CC[C@H]([C@@H](C)C(=O)O)OO2)C(C)(C)CCC1 (some centres not stated)
pIC50 [11]: < 8.62 | pIC50 [12]: < 8.62 | pIC50 [13]: < 8.62

pIC50 [22]: 7.64
Structure (SMILES): CC(C)[C@]1(O)CC[C@@]2(C)C[C@](O)([C@H]3CC[C@@H]4[C@]3(C)CC[C@H]3OC(C)(C)[C@H](O)C(=O)[C@@H](O)[C@]43C)CC[C@@H]21

pIC50 [23]: 4.96 | pIC50 [24]: 5.05 | pIC50 [25]: 4.90
Structure (SMILES): O=C1Nc2cc(Br)ccc2[C@@]1(c1cc2ccccc2[nH]1)c1c[nH]c2ccccc12

Structure (SMILES): COc1cccc2c1C(=O)c1c(O)c3c(c(O)c1C2=O)C[C@@](O)(C(=O)CO)C[C@@H]3O[C@H]1C[C@H](N)[C@H](O)[C@H](C)O1 [DOXORUBICIN]
pIC50 [1]: 6.40 | pIC50 [2]: 6.46 | pIC50 [3]: 6.52

pIC50 [26]: 8.32 | pIC50 [14]: 5.10 | pIC50 [13]: 5.05
Structure (SMILES): CC1=CCC2C(CC[C@@]2(C)O)C(C)(C)[C@@H]1CC[C@H]1[C@@](C)(O)CCC2OC(C)(C)[C@H](O)CC[C@@]21C (some centres not stated)

Structure (SMILES): CC1=C(CC/C(C)=C/CC[C@@]2(C)CC[C@H]([C@@H](C)C(=O)O)OO2)C(C)(C)CCC1
pIC50 [14]: 5.10 | pIC50 [15]: 5.15 | pIC50 [8]: 5.52

pIC50 [27]: 4.52 | pIC50 [28]: 4.71 | pIC50 [29]: 5.39
Structure (SMILES): C#C/C=C\CCCCCCCCC#CCCC(=O)NCCc1ccccc1

pIC50 [4]: 8.25
Structure (SMILES): CO[C@@H]1C[C@H](C)O[C@@H](C(O)C[C@H](C)[C@H](O)[C@H](C)[C@H]2OC(=O)/C=C/C(C)=C/C[C@H](O)C[C@H]3C=CC[C@@H](C[C@H](OC)[C@@H](C)[C@@H](O)C[C@@H](O)[C@H](C)[C@@H]([C@@H](C)[C@@H](O)[C@@H](C)CC[C@H]4C[C@H](OC)C[C@H](C)O4)OC(=O)/C=C/C(C)=C/C[C@H](O)C[C@@H]4C=CC[C@@H](C[C@H](OC)[C@@H](C)[C@@H](O)C[C@@H](O)[C@@H]2C)O4)O3)C1 (some centres not stated)

pIC50 [12]: < 8.40
Structure (SMILES): CO[C@@]1(C)CCC(C(C)C)=C[C@@H]2[C@H]1CC[C@]2(C)O

pIC50 [30]: 5.07 | pIC50 [31]: 5.07 | pIC50 [32]: 5.41
Structure (SMILES): COC1=C(Br)C[C@]2(OC=C1Br)ON=C(C(=O)NCCCOc1c(Br)cc(CCN)cc1Br)[C@@H]2O [PSAMMAPLYSIN A]

pIC50 [30]: 5.15 | pIC50 [31]: 4.75 | pIC50 [32]: 4.88
Structure (SMILES): COC1=C(Br)C[C@@]2(OC=C1Br)ON=C(C(=O)NCCCOc1c(Br)cc(C(O)CNC(N)=O)cc1Br)[C@H]2O (some centres not stated)

pIC50 [30]: 5.09 | pIC50 [31]: 4.65 | pIC50 [32]: 4.71
Structure (SMILES): COC1=C(Br)C[C@@]2(OC=C1Br)ON=C(C(=O)NCCCOc1c(Br)cc(CCNC(N)=O)cc1Br)[C@H]2O
